The text below walks through data of US8232253B2, “Treatment of lung cancer” (Ramot at Tel-Aviv University Ltd., priority 2006, dated 2012).

For test [1], the system named is A549 cells. Briefly: FACS analysis of cell cycle (propidium iodide). The test is classed as cell-based, human. To be noted: for apoptotic population of cells (sub-G1): 75 μM FTS; for reduction in G1 population: FTS. How it is done: A549 cells were plated (9×10^5 cells) in 10-cm plates, incubated for 24 h in medium containing 5% FCS, and then incubated for 24 or 48 h with or without 75 μM FTS. The cells were collected, resuspended in PBS containing propidium iodide (50 μg/ml; Sigma) and 0.05% Triton X-100, and subjected to analysis by a fluorescence-activated cell sorter (FACSCalibur; Becton Dickinson, Los Angeles, Calif.).
To investigate the effect of FTS on lung cancer cell proliferation, we first incubated A549 cells that harbor the activated K-ras gene mutated at codon 12. A549 cells are commonly used as a model for drug screening. […] Increasing concentration of FTS inhibited A549 cell growth at a dose dependent rate, with a decrease of 50% at 40 μM FTS. The number of cells in the FTS-treated cultures was determined by direct counting of A549 cells grown for 6 days in the presence of FTS and was expressed as a percentage of the number recorded in the controls. Data were means of 12 counts ±SD. *P<0.01, **P<0.0005, compared to control (FIG. 3). In another set of experiments, cells were also treated for 24 and 48 h with FTS and collected for FACS analysis (FIG. 4). The apoptotic population of cells (indicated in the FACS analysis as sub-G1) was 3.8% at 24 h and 8.4% at 48 h in cells treated with 75 μM FTS, compared to 1.0% and 2.8%, respectively, in control cells (FIG. 4). […] Thus, FTS induced cell-cycle arrest in A549 cells, resulting in inhibition of cell growth.
(In general: Flow cytometry measures light scatter and fluorescence of single cells or particles in a stream.)

In the next test the test system is Rac1-GTP. Put plainly: Rac1-GTP pull-down assay in A549 cells. Format: cell-based, human. How it is done: (§1) A549 cells were incubated for 24 or 48 h with or without FTS, as described above, and then lysed with lysis buffer as described in Haklai, R., Gana-Weisz, M., Elad, G., et al., Biochemistry 37:1306-14 (1998). The apparent amounts of K-Ras-GTP in 0.5 mg protein of total cell lysates were determined by the glutathione-S-transferase (GST)-RBD (Ras-binding domain of Raf) pull-down assay, as described in (Elad-Sfadia, G., Haklai, R., Ballan, E., Gabius, H. J., Kloog, Y., J Biol Chem 277:37169-75 (2002). The apparent amounts of Rac1-GTP and of RhoA-GTP, each in 2 mg protein of total cell lysates, were determined, respectively, by pull-down assays with GST-PBD (Rac1-binding domain of PAK1)-conjugated and GST-Rhotekin BD (Rho-binding domain of Rhotekin)-conjugated beads [Benard, V., Bohl, B. P., Bokoch, G. M, J Biol Chem 274:13198-204 (1999); Fiordalisi, J. J., Keller, P. J., Cox, A. D., Cancer Res 66:3153-61 (2006). […] Levels of phospho-ERK and phospho-Akt were determined by immunoblotting [Haklai, R., Gana-Weisz, M., Elad, G., et al., supra.] using rabbit anti phospho-ERK1/2 Ab (Santa Cruz Biotechnology, Santa Cruz, Calif.) and rabbit anti phospho-Akt Ab (Cell Signaling, Beverly, Mass.). Protein bands were visualized by enhanced chemiluminescence and quantified by densitometry using ImageJ computer software (National institutes of Health, Bethesda, Md.). […]

The test system of a further test is RhoA-GTP. Put plainly: RhoA-GTP pull-down assay in A549 cells. Format: cell-based, human. How it is done: as §1
Test [2] relates to A549 cells. Put plainly: Anchorage-independent colony formation assay in soft agar. Format: cell-based. The note with it: Homo sapiens, A549, 456 h, 19 days, read-out: inhibition of A549 cell growth in soft agar. How it is done:
Noble agar (2% and 0.6%; Difco, Detroit, Mich.) was prepared in water and autoclaved. The 2% agar was melted in a microwave oven, mixed 1:1 with medium (×2 Kaighn's modification of Ham's F-12 medium with 20% FCS, 100 U/ml penicillin, and 0.1 mg/ml streptomycin) and poured onto 96-well plates (50 μl per well) to provide the 1% base agar. The 0.6% agar (5 ml) was mixed with 5 ml of medium (×2), containing 8×10^4 A549 cells, and the mixture (50 μl) was plated on top of the base agar. The cells were incubated for 19 days at 37° C. with or without the indicated concentrations of FTS (6 wells for the control and for each treatment) and colonies were stained with MTT (1 mg/ml for 4 h). The colonies were then visualized by light microscopy, imaged, and counted using the ImagePro software. Next, to determine the effect of FTS on the anchorage-independent growth of A549 cells, a soft agar assay was performed. The cells were seeded in soft agar and treated with increasing concentrations of FTS 0 μM, 50 μM and 100 μM (FIGS. 12A-12B). Control cells were treated with 0.1% Me2SO4 (DMSO). FTS inhibited A549 cell growth in soft agar by 27±5.5% and 58±21% at 50 μM and 100 μM FTS, respectively. Thus, FTS inhibited the anchorage-independent growth of A549 cells.

The subject of test [3] is human NSCLC cell lines H1734, H2030, H1975, H3255. Put plainly: Alamar blue viable cell assay in NSCLC cell lines. The test is classed as cell-based. The note with it: increasing FTS concentrations, 96 hours; H1734, H2030 (KRAS mutations), H1975, H3255 (EGFR mutations). How it is done:
To determine whether FTS sensitized other human NSCLC cell lines to cell death, experiments were conducted on cell lines H1734 and H2030 (KRAS mutations) and H1975 and H3255 (EGFR mutations). The four cell lines were grown in increasing concentrations of FTS (dissolved in DMSO). After 96 hours, viable cells were quantified using an Alamar blue assay. Results are the mean±standard error of three independent experiments, in which there were 3 replicates of each condition, as shown in FIG. 15.
(The colour change of resazurin is a common sign of viable cells or microbes.)

Take `CC(C)=CCC/C(C)=C/CC/C(C)=C/CSc1ccccc1C(=O)O` [FTS, S-farnesylthiosalicylic acid]: in the test on A549 cells [1] (24 h), the “apoptotic population of cells (sub-G1)” value was 3.8% and the “reduction in G1 population” value was found to be 5.6%. Further, in the test with A549 cells [1] (48 h), the “apoptotic population of cells (sub-G1)” value is recorded as 8.4% and the “reduction in G1 population” value is recorded as 19%. In addition, in the test on Rac1-GTP, the “effect on the amount of active Rac1-GTP” value is given as “no effect”. In the test on RhoA-GTP, the “increase in RhoA-GTP” value is 2±0.2 fold. In addition, the inhibition at 50 µM with A549 cells [2] (50 μM FTS) stood at 27 ± 5.5%. Also, in the test with A549 cells [2] (100 μM FTS), the inhibition at 100 µM was determined as 58 ± 21%. In addition, the “sensitization of NSCLC cell lines to cell death” value in test [3] is listed as “sensitized”.

Usually inhibition stands for how much of the control response was suppressed.
